In patent publication US9624216B2, “Quinolinone five-membered heterocyclic compounds as mutant-isocitrate dehydrogenase inhibitors” (Forma Therapeutics, Inc., priority 2015, dated 2017) one finds IC50 and melting point data, which are given here for 17 compounds.

In data set [1] the target is IDH1-R132H recombinant protein (Homo sapiens, UniProt O75874, R132H). The data set can be described thus: IDH1-R132H enzymatic assay (NADPH consumption, diaphorase/resazurin readout). The format is biochemical. The note with it: 30 nM IDH1-R132H, inhibition of NADPH consumption; read-out: Enzyme IDH1 R132H IC50. The method, then:
(§1) IDH1-R132H and IDH1-R132C Enzymatic Assay
(§2) Assays were performed in a 384-well black plate. An aliquot of 250 nL of compound was incubated with 10 μL of 30 nM IDH1-R132H or 10 nM IDH1-R132C recombinant protein in assay buffer (50 mM Tris pH=7.5, 150 mM NaCl, 5 mM MgCl2, 0.1% (w/v) Bovine Serum Albumin, and 0.01% Triton X-100) in each well at 25° C. for 15 minutes. After the plate was centrifuged briefly, an aliquot of 10 μL of 2 mM α-ketoglutarate and 20 μM NADPH solution prepared in assay buffer was then added to each well and the reaction was maintained at 25° C. for 45 minutes. An aliquot of 10 μL of diaphorase solution (0.15 U/mL diaphorase and 30 μM Resazurin in assay buffer) was added to each well. The plate was maintained at 25° C. for 15 minutes and then read on a plate reader with excitation and emission wavelengths at 535 nm and 590 nm, respectively. The IC50 of a given compound was calculated by fitting the dose response curve of inhibition of NADPH consumption at a given concentration with the four parameter logistic equation.
(The colour change of resazurin is a common sign of viable cells or microbes.)

Data set [2] has as its target T1, HCT116 isogenic IDH1-R132C mutant cells (Homo sapiens, UniProt O75874, R132C).
T1 construct: HCT116 isogenic IDH1-R132H and IDH1-R132C mutant cells; endogenous in cells; host or cells: HCT116 isogenic IDH1-R132C mutant cells (kept under G418)
The data set can be described thus: Cellular 2-HG assay using HCT116 mutant IDH1 cells (R132C). The class given is cell-based. The settings on record: cellular 2-HG inhibition, 24 hours, RapidFire mass spectrometry. Here is the method:
(§3) Cellular 2-HG Assay Using HCT116 Mutant IDH1 Cells
(§4) HCT116 isogenic IDH1-R132H and IDH1-R132C mutant cells were cultured in growth media (McCoy's 5A, 10% fetal bovine serum, 1× antibiotic-antimycotic solution and 0.3 mg/mL G418) in 5% CO2 in an incubator at 37° C. To prepare the assay, cells were trypsinized and resuspended in assay media (McCoy's 5A with no L-glutamine, 10% fetal bovine serum, 1× antibiotic-antimycotic solution and 0.3 mg/mL G418). An aliquot of 10,000 cells/100 μL was transferred to each well of a clear 96-well tissue culture plate. The cells were incubated in 5% CO2 at 37° C. in an incubator overnight to allow for proper cell attachment. An aliquot of 50 μL of compound containing assay media were then added to each well and the assay plate was kept in 5% CO2 at 37° C. in an incubator for 24 hours. The media was then removed from each well and 150 μL of a methanol/water mixture (80/20 v/v) was added to each well. The plates were kept at −80° C. freezer overnight to allow for complete cell lysis. An aliquot of 125 μL of extracted supernatant was analyzed by RapidFire high-throughout-mass spectrometry (Agilent) to determine the cellular 2-HG level. The IC50 of a given compound was calculated by fitting the dose response curve of cellular 2-HG inhibition at a given concentration with the four parameter logistic equation

Data set [3] deals with IDH1-R132C recombinant protein (Homo sapiens, UniProt O75874, R132C). The data set can be described thus: IDH1-R132C enzymatic assay (NADPH consumption, diaphorase/resazurin readout). The class given is biochemical. The settings on record: 10 nM IDH1-R132C, inhibition of NADPH consumption; read-out: Enzyme IDH1 R132C IC50. Here is the method:
as §1, §2

Data set [4] concerns the target T2, HCT116 isogenic IDH1-R132H mutant cells (Homo sapiens, UniProt O75874, R132H).
T2 construct: HCT116 isogenic IDH1-R132H and IDH1-R132C mutant cells; endogenous in cells; host or cells: HCT116 isogenic IDH1-R132H mutant cells (kept under G418)
The data set can be described thus: Cellular 2-HG assay using HCT116 mutant IDH1 cells (R132H). The settings on record: cellular 2-HG inhibition, 24 hours, RapidFire mass spectrometry. The class given is cell-based. Here is the method: as §3, §4

pIC50: −log10 of the molar value.

T2 sequence (O75874 2-414 R132H limits assumed): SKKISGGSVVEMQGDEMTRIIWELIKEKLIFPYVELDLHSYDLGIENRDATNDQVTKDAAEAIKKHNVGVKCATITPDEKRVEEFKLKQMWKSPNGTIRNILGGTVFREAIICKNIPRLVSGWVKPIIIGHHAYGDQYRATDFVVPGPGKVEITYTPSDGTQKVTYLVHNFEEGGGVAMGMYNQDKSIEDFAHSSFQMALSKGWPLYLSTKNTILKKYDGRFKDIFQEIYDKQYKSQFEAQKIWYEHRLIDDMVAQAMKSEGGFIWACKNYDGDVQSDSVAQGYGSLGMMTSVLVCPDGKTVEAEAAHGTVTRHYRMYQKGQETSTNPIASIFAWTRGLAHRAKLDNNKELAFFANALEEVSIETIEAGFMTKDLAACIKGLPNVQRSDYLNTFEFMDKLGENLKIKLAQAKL
T1 sequence (O75874 2-414 R132C limits assumed): as the sequence (O75874 2-414 R132H limits assumed) above, with H131C counted along it
IDH1-R132C recombinant protein, sequence (O75874 whole entry R132C): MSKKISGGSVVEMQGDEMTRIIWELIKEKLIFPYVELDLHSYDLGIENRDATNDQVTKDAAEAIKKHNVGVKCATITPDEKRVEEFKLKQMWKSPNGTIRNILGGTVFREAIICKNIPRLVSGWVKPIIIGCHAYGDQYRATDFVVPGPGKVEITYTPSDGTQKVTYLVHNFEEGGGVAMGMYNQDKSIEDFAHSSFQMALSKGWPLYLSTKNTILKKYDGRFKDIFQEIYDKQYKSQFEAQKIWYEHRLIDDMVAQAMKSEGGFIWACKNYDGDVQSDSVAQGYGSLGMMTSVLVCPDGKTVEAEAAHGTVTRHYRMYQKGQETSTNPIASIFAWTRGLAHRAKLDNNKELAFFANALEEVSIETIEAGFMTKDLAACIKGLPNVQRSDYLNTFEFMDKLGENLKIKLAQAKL
IDH1-R132H recombinant protein, sequence (O75874 whole entry R132H): as the sequence (O75874 whole entry R132C) above, with C132H counted along it

A word on the pIC50: it is −log10 of the IC50, conventionally taken in molar units. As to `CC(Nc1ncc(C#N)s1)c1cc2cc(Cl)c(OCc3ccccn3)cc2[nH]c1=O` (racemic) [Compound I-3, 2-((1-(6-chloro-2-oxo-7-(pyridin-2-ylmethoxy)-1,2-dihydroquinolin-3-yl)ethyl)amino)thiazole-5-carbonitrile], the pIC50 is above 7.00 in data set [1], above 7.00 in data set [2], 6.00 to 7.00 in data set [3] and 6.00 to 7.00 in data set [4].
A word on the melting point: it is the temperature, or range, at which the solid turns liquid. Consider `C[C@H](Nc1ncc(C#N)s1)c1cc2cc(Cl)ccc2[nH]c1=O` [Compound I-1, (S)-2-((1-(6-chloro-2-oxo-1,2-dihydroquinolin-3-yl)ethyl)amino)thiazole-5-carbonitrile], for which the melting point was 211 to 213 °C (dec.). Besides, the pIC50 in data set [1] is above 7.00. In data set [2], this compound had a pIC50 of 6.00 to 7.00. In addition, the pIC50 in data set [3] is 6.00 to 7.00. This compound also had a pIC50 in data set [4] of 6.00 to 7.00.
For the compound `COc1cc2[nH]c(=O)c(C(C)Nc3ncc(C#N)s3)cc2cc1Cl` (stereo not drawn) [Compound I-2, 2-((1-(6-chloro-7-methoxy-2-oxo-1,2-dihydroquinolin-3-yl)ethyl)amino)thiazole-5-carbonitrile], the pIC50 is above 7.00 in data set [1], 6.00 to 7.00 in data set [2], 6.00 to 7.00 in data set [3] and above 7.00 in data set [4].
Take `C[C@H](Nc1ncc(C#N)s1)c1cc2cc(Cl)c(OCc3ccccn3)cc2[nH]c1=O` [Compound I-4, (S)-2-((1-(6-chloro-2-oxo-7-(pyridin-2-ylmethoxy)-1,2-dihydroquinolin-3-yl)ethyl)amino)thiazole-5-carbonitrile]: the negative-log IC50 (pIC50) in data set [1], in data set [2], in data set [3] and in data set [4] was above 7.00 in each case.
For `C[C@@H](Nc1ncc(C#N)s1)c1cc2cc(Cl)c(OCc3ccccn3)cc2[nH]c1=O` [Compound I-5, (R)-2-((1-(6-chloro-2-oxo-7-(pyridin-2-ylmethoxy)-1,2-dihydroquinolin-3-yl)ethyl)amino)thiazole-5-carbonitrile], the figures for the negative-log IC50 (pIC50) in data set [1] and in data set [3] were 6.00 to 7.00 and 5.00 to 6.00, respectively.
As to `CC(Nc1ncc(C#N)s1)c1cc2cc(Cl)cnc2[nH]c1=O` (stereo not drawn) [Compound I-6, 2-((1-(6-chloro-2-oxo-1,2-dihydro-1,8-naphthyridin-3-yl)ethyl)amino)thiazole-5-carbonitrile], the pIC50 in data set [1] is 6.00 to 7.00.
Take `Cc1nc(N[C@@H](C)c2cc3cc(Cl)ccc3[nH]c2=O)sc1C#N` [Compound I-7, (S)-2-((1-(6-chloro-2-oxo-1,2-dihydroquinolin-3-yl)ethyl)amino)-4-methylthiazole-5-carbonitrile]: the negative-log IC50 (pIC50) in data set [1] was above 7.00; in data set [2], 6.00 to 7.00; in data set [3], 6.00 to 7.00; in data set [4], above 7.00.
Take `CC(=O)Nc1cnc(N[C@@H](C)c2cc3cc(Cl)ccc3[nH]c2=O)s1` [Compound I-8, (S)-N-(2-((1-(6-chloro-2-oxo-1,2-dihydroquinolin-3-yl)ethyl)amino)thiazol-5-yl)acetamide]: the pIC50 is 5.00 to 6.00 in data set [1] and below 5.00 in data set [3].
Regarding `CCOC(=O)c1sc(N[C@@H](C)c2cc3cc(Cl)ccc3[nH]c2=O)nc1C` [Compound I-9, (S)-ethyl 2-((1-(6-chloro-2-oxo-1,2-dihydroquinolin-3-yl)ethyl)amino)-4-methylthiazole-5-carboxylate], the pIC50 in data set [1] was 5.00 to 6.00.
Turning to `C[C@H](Nc1ncc(C(N)=O)s1)c1cc2cc(Cl)ccc2[nH]c1=O` [Compound I-10, (S)-2-((1-(6-Chloro-2-oxo-1,2-dihydroquinolin-3-yl)ethyl)amino)thiazole-5-carboxamide], the values for the pIC50 in data set [1] and in data set [3] were 6.00 to 7.00 and 5.00 to 6.00, respectively.
Regarding `Cc1nc(N[C@@H](C)c2cc3cc(Cl)ccc3[nH]c2=O)sc1C(N)=O` [Compound I-11, (S)-2-((1-(6-chloro-2-oxo-1,2-dihydroquinolin-3-yl)ethyl)amino)-4-methylthiazole-5-carboxamide], the pIC50 is above 7.00 in data set [1], 6.00 to 7.00 in data set [2], 6.00 to 7.00 in data set [3] and above 7.00 in data set [4].
`C[C@H](Nc1nsc(N2CCOC2=O)n1)c1cc2cc(Cl)ccc2[nH]c1=O` [Compound I-12, 6-chloro-3-[(1S)-1-{[5-(2-oxo-1,3-oxazolidin-3-yl)-1,2,4-thiadiazol-3-yl]amino}ethyl]-1,2-dihydroquinolin-2-one]: in data set [1], the pIC50 was below 5.00.
Turning to `O=c1[nH]c2ccc(Cl)cc2cc1CNc1nc(-c2ccccn2)cs1` [Compound I-13, 6-chloro-3-({[4-(pyridin-2-yl)-1,3-thiazol-2-yl]amino}methyl)-1,2-dihydroquinolin-2-one], the negative logarithm of the IC50 (pIC50) in data set [1] was 5.00 to 6.00.
The same measure, in the same setting: the figure for `O=c1[nH]c2ccc(Cl)cc2cc1CNc1nc(-c2ccc(F)c(F)c2)cs1` [Compound I-14, 6-chloro-3-({[4-(3,4-difluorophenyl)-1,3-thiazol-2-yl]amino}methyl)-1,2-dihydroquinolin-2-one] is 5.00 to 6.00; for `COc1ccc2[nH]c(=O)c(CNc3nc4ccccc4s3)cc2c1` [Compound I-15, 3-{[(1,3-benzothiazol-2-yl)amino]methyl}-6-methoxy-1,2-dihydroquinolin-2-one] it is below 5.00; for `CCc1c(C)sc(NCc2cc3cc(Cl)ccc3[nH]c2=O)c1C#N` [Compound I-16, 2-{[(6-chloro-2-oxo-1,2-dihydroquinolin-3-yl)methyl]amino}-4-ethyl-5-methylthiophene-3-carbonitrile] it is below 5.00.
Still for that read-out and setting: for `COc1ccc2[nH]c(=O)c(CNc3nc(C)c(C)s3)cc2c1` [Compound I-17, 3-{[(dimethyl-1,3-thiazol-2-yl)amino]methyl}-6-methoxy-1,2-dihydroquinolin-2-one] the value was below 5.00.
